Measured values: PubChem BioAssay (NCI)
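Briefly, cells in 96-well plates were exposed to five compound concentrations for 48 h, and endpoints were estimated by linear interpolation. GI50 = concentration required for 50% inhibition of growth. TGI: total growth inhibition.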

How the values were obtained:
Assay in all cases: inhibition of tumour cell growth, NCI panel, 48 h
COLO 205 colon = test system: COLO 205 colon
UO-31 renal = test system: UO-31 renal
MCF7 breast = test system: MCF7 breast
MDA-MB-435 = test system: MDA-MB-435
U251 CNS = test system: U251 CNS
HL-60(TB) leukemia = test system: HL-60(TB) leukemia
BT-549 breast = test system: BT-549 breast
SK-MEL-5 melanoma = test system: SK-MEL-5 melanoma
NCI-H226 lung = test system: NCI-H226 lung
OVCAR-5 ovarian = test system: OVCAR-5 ovarian
UACC-257 melanoma = test system: UACC-257 melanoma
SK-MEL-2 melanoma = test system: SK-MEL-2 melanoma
SF-539 CNS = test system: SF-539 CNS
TK-10 renal = test system: TK-10 renal
NCI/ADR-RES ovarian = test system: NCI/ADR-RES ovarian
SNB-19 CNS = test system: SNB-19 CNS
HCT-15 colon = test system: HCT-15 colon
OVCAR-3 ovarian = test system: OVCAR-3 ovarian
LOX IMVI melanoma = test system: LOX IMVI melanoma
A498 renal = test system: A498 renal
SN12C renal = test system: SN12C renal
DU-145 prostate = test system: DU-145 prostate
A549 NSCLC = test system: A549 NSCLC
M14 melanoma = test system: M14 melanoma
HCC-2998 colon = test system: HCC-2998 colon
CAKI-1 renal = test system: CAKI-1 renal
RXF 393 renal = test system: RXF 393 renal
SK-OV-3 ovarian = test system: SK-OV-3 ovarian
CCRF-CEM leukemia = test system: CCRF-CEM leukemia
786-0 renal = test system: 786-0 renal
ACHN renal = test system: ACHN renal
HS 578T breast = test system: HS 578T breast
RPMI-8226 leukemia = test system: RPMI-8226 leukemia
HOP-62 NSCLC = test system: HOP-62 NSCLC
SF-295 CNS = test system: SF-295 CNS
EKVX NSCLC = test system: EKVX NSCLC
NCI-H522 lung = test system: NCI-H522 lung
NCI-H23 lung = test system: NCI-H23 lung
MDA-MB-231 breast = test system: MDA-MB-231 breast
IGROV1 ovarian = test system: IGROV1 ovarian
PC-3 prostate = test system: PC-3 prostate
HCT-116 colon = test system: HCT-116 colon
NCI-H460 lung = test system: NCI-H460 lung
HOP-92 NSCLC = test system: HOP-92 NSCLC
SF-268 CNS = test system: SF-268 CNS
KM12 colon = test system: KM12 colon
OVCAR-8 ovarian = test system: OVCAR-8 ovarian
T-47D breast = test system: T-47D breast
UACC-62 melanoma = test system: UACC-62 melanoma
K-562 leukemia = test system: K-562 leukemia
SW-620 colon = test system: SW-620 colon
MALME-3M melanoma = test system: MALME-3M melanoma

SMILES: O=C(OC(CNc1c(C(=O)c2ccccc2)c(=O)n(Cc2ccccc2)c(=O)n1Cc1ccccc1)CN1CCOCC1)c1ccccc1 (centres undefined)
- GI50 (COLO 205 colon): 46.3 µM
- TGI (COLO 205 colon): > 100 µM
- GI50 (UO-31 renal): 52.8 µM
- TGI (UO-31 renal): > 100 µM
- GI50 (MCF7 breast): 48.1 µM
- TGI (MCF7 breast): > 100 µM
- GI50 (MDA-MB-435): 86.7 µM
- TGI (MDA-MB-435): > 100 µM
- GI50 (U251 CNS): 42.3 µM
- TGI (U251 CNS): > 100 µM
- GI50 (HL-60(TB) leukemia): 30.9 µM
- TGI (HL-60(TB) leukemia): > 100 µM
- GI50 (BT-549 breast): 41.3 µM
- TGI (BT-549 breast): > 100 µM
- GI50 (SK-MEL-5 melanoma): 37.7 µM
- TGI (SK-MEL-5 melanoma): > 100 µM
- GI50 (NCI-H226 lung): 49.9 µM
- TGI (NCI-H226 lung): > 100 µM
- GI50 (OVCAR-5 ovarian): > 100 µM
- TGI (OVCAR-5 ovarian): > 100 µM
- GI50 (UACC-257 melanoma): 76.8 µM
- TGI (UACC-257 melanoma): > 100 µM
- GI50 (SK-MEL-2 melanoma): 56.7 µM
- TGI (SK-MEL-2 melanoma): > 100 µM
- GI50 (SF-539 CNS): 91.8 µM
- TGI (SF-539 CNS): > 100 µM
- GI50 (TK-10 renal): 69 µM
- TGI (TK-10 renal): > 100 µM
- GI50 (NCI/ADR-RES ovarian): 47.7 µM
- TGI (NCI/ADR-RES ovarian): > 100 µM
- GI50 (SNB-19 CNS): 71.3 µM
- TGI (SNB-19 CNS): > 100 µM
- GI50 (HCT-15 colon): 38.5 µM
- TGI (HCT-15 colon): > 100 µM
- GI50 (OVCAR-3 ovarian): 34.1 µM
- TGI (OVCAR-3 ovarian): > 100 µM
- GI50 (LOX IMVI melanoma): 59 µM
- TGI (LOX IMVI melanoma): > 100 µM
- GI50 (A498 renal): 37.4 µM
- TGI (A498 renal): > 100 µM
- GI50 (SN12C renal): 50.7 µM
- TGI (SN12C renal): > 100 µM
- GI50 (DU-145 prostate): > 100 µM
- TGI (DU-145 prostate): > 100 µM
- GI50 (A549 NSCLC): 49.3 µM
- TGI (A549 NSCLC): > 100 µM
- GI50 (M14 melanoma): 38.4 µM
- TGI (M14 melanoma): > 100 µM
- GI50 (HCC-2998 colon): 47.4 µM
- TGI (HCC-2998 colon): > 100 µM
- GI50 (CAKI-1 renal): 34.7 µM
- TGI (CAKI-1 renal): > 100 µM
- GI50 (RXF 393 renal): 34.7 µM
- TGI (RXF 393 renal): > 100 µM
- GI50 (SK-OV-3 ovarian): > 100 µM
- TGI (SK-OV-3 ovarian): > 100 µM
- GI50 (CCRF-CEM leukemia): 33.9 µM
- TGI (CCRF-CEM leukemia): > 100 µM
- GI50 (786-0 renal): 70.4 µM
- TGI (786-0 renal): > 100 µM
- GI50 (ACHN renal): 46.8 µM
- TGI (ACHN renal): > 100 µM
- GI50 (HS 578T breast): 40.2 µM
- TGI (HS 578T breast): > 100 µM
- GI50 (RPMI-8226 leukemia): 26.8 µM
- TGI (RPMI-8226 leukemia): 82.8 µM
- GI50 (HOP-62 NSCLC): 55.5 µM
- TGI (HOP-62 NSCLC): > 100 µM
- GI50 (SF-295 CNS): 41.6 µM
- TGI (SF-295 CNS): > 100 µM
- GI50 (EKVX NSCLC): 52.9 µM
- TGI (EKVX NSCLC): > 100 µM
- GI50 (NCI-H522 lung): 47.2 µM
- TGI (NCI-H522 lung): > 100 µM
- GI50 (NCI-H23 lung): 43.2 µM
- TGI (NCI-H23 lung): > 100 µM
- GI50 (MDA-MB-231 breast): 42.8 µM
- TGI (MDA-MB-231 breast): > 100 µM
- GI50 (IGROV1 ovarian): 65.2 µM
- TGI (IGROV1 ovarian): > 100 µM
- GI50 (PC-3 prostate): 38.6 µM
- TGI (PC-3 prostate): > 100 µM
- GI50 (HCT-116 colon): 41.1 µM
- TGI (HCT-116 colon): > 100 µM
- GI50 (NCI-H460 lung): 46.2 µM
- TGI (NCI-H460 lung): > 100 µM
- GI50 (HOP-92 NSCLC): 29.6 µM
- TGI (HOP-92 NSCLC): > 100 µM
- GI50 (SF-268 CNS): > 100 µM
- TGI (SF-268 CNS): > 100 µM
- GI50 (KM12 colon): 42.1 µM
- TGI (KM12 colon): > 100 µM
- GI50 (OVCAR-8 ovarian): 64.7 µM
- TGI (OVCAR-8 ovarian): > 100 µM
- GI50 (T-47D breast): > 100 µM
- TGI (T-47D breast): > 100 µM
- GI50 (UACC-62 melanoma): 38.8 µM
- TGI (UACC-62 melanoma): > 100 µM
- GI50 (K-562 leukemia): 32.3 µM
- TGI (K-562 leukemia): > 100 µM
- GI50 (SW-620 colon): 76.4 µM
- TGI (SW-620 colon): > 100 µM
- GI50 (MALME-3M melanoma): > 100 µM
- TGI (MALME-3M melanoma): > 100 µM
